Source: patent US7777047B2, “Indole compound” (Takeda Pharmaceutical Company Limited, priority 2006, dated 2010)

melting point | Structure (SMILES)
107 to 110 °C | CN(c1cc(OCCCS(C)(=O)=O)cc2cc(C3=NCC(CN4CC[S+]([O-])CC4)S3)[nH]c12)S(=O)(=O)c1ccccn1 (stereo not shown) [Example 323, N-methyl-N-(5-[3-(methylsulfonyl)propoxy]-2-{5-[(1-oxidothiomorpholino)methyl]-4,5-dihydro-1,3-thiazol-2-yl}-1H-indol-7-yl)pyridine-2-sulfonamide]
188 to 189 °C | CN(c1cccc2cc(C3=NCC(CN4CCS(=O)(=O)CC4)S3)[nH]c12)S(=O)(=O)c1ccccn1 (stereo not shown) [Example 318, N-(2-{5-[(1,1-dioxidothiomorpholino)methyl]-4,5-dihydro-1,3-thiazol-2-yl}-1H-indol-7-yl)-N-methylpyridine-2-sulfonamide]
153 to 154 °C | CN(C)C(=O)CC1CN=C(c2cc3cccc(N(C)S(=O)(=O)c4cccs4)c3[nH]2)S1 (stereo not shown) [Example 294, N,N-dimethyl-2-(2-{7-[methyl(2-thienylsulfonyl)amino]-1H-indol-2-yl}-4,5-dihydro-1,3-thiazol-5-yl)acetamide]
197 to 198 °C | COc1ccccc1S(=O)(=O)N(C)c1cccc2cc(C3=NCC(CC(=O)O)S3)[nH]c12 (stereo not shown) [Example 307, (2-{7-[[(2-methoxyphenyl)sulfonyl](methyl)amino]-1H-indol-2-yl}-4,5-dihydro-1,3-thiazol-5-yl)acetic acid]
101 to 102 °C | CCOC(=O)CC1CN=C(c2cc3cccc(N(C)S(=O)(=O)c4cccs4)c3[nH]2)S1 (stereo not shown) [Example 283, ethyl (2-{7-[methyl(2-thienylsulfonyl)amino]-1H-indol-2-yl}-4,5-dihydro-1,3-thiazol-5-yl)acetate]
189 to 191 °C | CN(c1cccc2cc(C3=NCC(CCN4C(=O)CCC4=O)S3)[nH]c12)S(=O)(=O)c1cccs1 (stereo not shown) [Example 288, N-(2-{5-[2-(2,5-dioxopyrrolidin-1-yl)ethyl]-4,5-dihydro-1,3-thiazol-2-yl}-1H-indol-7-yl)-N-methylthiophene-2-sulfonamide]
168 to 169 °C | Cc1ccc(N(C)S(=O)(=O)c2cccs2)c2[nH]c(C3=NCC(CCO)S3)cc12 (stereo not shown) [Example 291, N-{2-[5-(2-hydroxyethyl)-4,5-dihydro-1,3-thiazol-2-yl]-4-methyl-1H-indol-7-yl}-N-methylthiophene-2-sulfonamide]
166 to 167 °C | COc1ccccc1S(=O)(=O)N(C)c1cccc2cc(C3=NCC(CC(=O)N4CCC(O)CC4)S3)[nH]c12 (stereo not shown) [Example 311, N-(2-{5-[2-(4-hydroxypiperidino)-2-oxoethyl]-4,5-dihydro-1,3-thiazol-2-yl}-1H-indol-7-yl)-2-methoxy-N-methylbenzenesulfonamide]
174 to 175 °C | CN(c1cccc2cc(C3=NCC(CCO)S3)[nH]c12)S(=O)(=O)c1cccs1 (stereo not shown) [Example 285, N-{2-[5-(2-hydroxyethyl)-4,5-dihydro-1,3-thiazol-2-yl]-1H-indol-7-yl}-N-methylthiophene-2-sulfonamide]
148 to 149 °C | CN(c1cccc2cc(C3=NCC(CC(N)=O)S3)[nH]c12)S(=O)(=O)c1ccccn1 (stereo not shown) [Example 338, 2-(2-{7-[methyl(pyridin-2-ylsulfonyl)amino]-1H-indol-2-yl}-4,5-dihydro-1,3-thiazol-5-yl)acetamide]
193 to 194 °C | CN(c1cccc2cc(C3=NCC(CC(N)=O)S3)[nH]c12)S(=O)(=O)c1cccs1 (stereo not shown) [Example 287, 2-(2-{7-[methyl(2-thienylsulfonyl)amino]-1H-indol-2-yl}-4,5-dihydro-1,3-thiazol-5-yl)acetamide]
132 to 135 °C | CN(c1cccc2cc(C3=NCC(CC(=O)N4CCC[C@H]4C(=O)O)S3)[nH]c12)S(=O)(=O)c1ccccc1C(F)(F)F (stereo partly drawn) [Example 316, 1-({2-[7-(methyl{[2-(trifluoromethyl)phenyl]sulfonyl}amino)-1H-indol-2-yl]-4,5-dihydro-1,3-thiazol-5-yl}acetyl)-L-proline]
> 240 °C (dec.) | O=C(O)CC1CN=C(c2cc3cccc(NS(=O)(=O)c4cccs4)c3[nH]2)S1 (stereo not shown) [Example 296, (2-{7-[(2-thienylsulfonyl)amino]-1H-indol-2-yl}-4,5-dihydro-1,3-thiazol-5-yl)acetic acid]
123 to 124 °C | CC(=O)CC1CN=C(c2cc3cccc(N(C)S(=O)(=O)c4cccs4)c3[nH]2)S1 (stereo not shown) [Example 300, N-methyl-N-{2-[5-(2-oxopropyl)-4,5-dihydro-1,3-thiazol-2-yl]-1H-indol-7-yl}thiophene-2-sulfonamide]
151 to 153 °C | CN1CCN(C(=O)CC2CN=C(c3cc4cccc(N(C)S(=O)(=O)c5cccs5)c4[nH]3)S2)CC1 (stereo not shown) [Example 286, N-methyl-N-(2-{5-[2-(4-methylpiperazin-1-yl)-2-oxoethyl]-4,5-dihydro-1,3-thiazol-2-yl}-1H-indol-7-yl)thiophene-2-sulfonamide]
165 to 167 °C | CC(=O)N1CCN(CC2CN=C(c3cc4cc(OCCCS(C)(=O)=O)cc(N(C)S(=O)(=O)c5ccccn5)c4[nH]3)S2)CC1 (stereo not shown) [Example 324, N-{2-{5-[(4-acetylpiperazin-1-yl)methyl]-4,5-dihydro-1,3-thiazol-2-yl}-5-[3-(methylsulfonyl)propoxy]-1H-indol-7-yl}-N-methylpyridine-2-sulfonamide]
269 to 270 °C | Cc1ccc(N(C)S(=O)(=O)c2cccs2)c2[nH]c(C3=NCC(CC(=O)O)S3)cc12 (stereo not shown) [Example 292, (2-{4-methyl-7-[methyl(2-thienylsulfonyl)amino]-1H-indol-2-yl}-4,5-dihydro-1,3-thiazol-5-yl)acetic acid]
154 to 155 °C | COc1ccccc1S(=O)(=O)N(C)c1cccc2cc(C3=NCC(CCO)S3)[nH]c12 (stereo not shown) [Example 306, N-{2-[5-(2-hydroxyethyl)-4,5-dihydro-1,3-thiazol-2-yl]-1H-indol-7-yl}-2-methoxy-N-methylbenzenesulfonamide]
186 to 187 °C | CN(c1cc(OC(F)(F)F)cc2cc(C3=NCC(CC(N)=O)S3)[nH]c12)S(=O)(=O)c1cccs1 (stereo not shown) [Example 384, 2-{2-[7-[methyl(2-thienylsulfonyl)amino]-5-(trifluoromethoxy)-1H-indol-2-yl]-4,5-dihydro-1,3-thiazol-5-yl}acetamide]
193 to 194 °C | CN(c1cccc2cc(C3=NCC(CN4CC[S+]([O-])CC4)S3)[nH]c12)S(=O)(=O)c1ccccn1 (stereo not shown) [Example 304, N-methyl-N-(2-{5-[(1-oxidothiomorpholino)methyl]-4,5-dihydro-1,3-thiazol-2-yl}-1H-indol-7-yl)pyridine-2-sulfonamide]
109 to 110 °C | CCOC(=O)CC1CN=C(c2cc3c(C)ccc(N(C)S(=O)(=O)c4cccs4)c3[nH]2)S1 (stereo not shown) [Example 290, ethyl (2-{4-methyl-7-[methyl(2-thienylsulfonyl)amino]-1H-indol-2-yl}-4,5-dihydro-1,3-thiazol-5-yl)acetate]
190 to 191 °C | Cc1ccc(N(C)S(=O)(=O)c2cccs2)c2[nH]c(-c3ncc(CN4CCC(O)C4)s3)cc12 (stereo not shown) [Example 251, N-(2-{5-[(3-hydroxypyrrolidin-1-yl)methyl]-1,3-thiazol-2-yl}-4-methyl-1H-indol-7-yl)-N-methylthiophene-2-sulfonamide]
